system: platelet activating factor; assay: antagonism of platelet activating factor (statement in words); conditions: not given

`Cc1nc2ccncc2n1Cc1ccc(S(=O)(=O)N(C)Cc2cccs2)cc1` [N-methyl-N-4-(3 H-2-methylimidazo[4,5-c]pyridinylmethyl)phenylsulphonyl-2-thienylmethylamine] was tested, and the “antagonism of platelet activating factor (in words)” value was “are antagonists of platelet activating factor”.
`Cc1nc2ccn(Cc3ccc(S(=O)(=O)N(C)Cc4cccs4)cc3)cc-2n1` [N-methyl-N-4-(5H-2-methylimidazo[4,5-c]pyridinylmethyl)phenylsulphonyl-2-thienylmethylamine] was tested, and the “antagonism of platelet activating factor (in words)” value was “are antagonists of platelet activating factor”.

system: PAF-induced hypotension; assay: reversal of hypotension caused by an infusion of PAF in rats; type: in vivo, Male Sprague-Dawley rats; conditions: iv; i.v. bolus; PAF 100 ng/kg/min infused i.v.; anaesthetised rat; read-out: inhibition of PAF-induced hypotension in the rat, ED50 (dose to cause a 50% reversal of the hypotensive PAF response)
Description: Male Sprague-Dawley rats (300-350 g) were anaesthetised with a mixture of sodium pentobarbitone, 22.5 mg/kg and thiopental 62.5 mg/kg. Through a midline incision in the neck, the trachea was cannulated and the animals breathed spontaneously. A carotid artery was cannulated for the measurement of blood pressure and this signal was used to trigger a rate meter to measure heart rate. Both jugular veins were cannulated: one for the infusion of PAF and the other for the bolus administration of test compounds.
PAF, 100 ng/kg/min was infused i.v. until a sustained fall in mean blood pressure of 50 mmHg was achieved. […] The peak of this reversal was measured and the dose to cause a 50% reversal of the hypotensive PAF response (ED50) calculated by straight line interpolation and the results are presented in Table 2.

First: CN(C(=O)c1ccc(Cn2cnc3cnccc32)cc1)C1CCCCC1 [Comparative Example, N-Cyclohexyl-N-methyl-4-(1H-imidazo[4,5-c]pyridinylmethyl)benzamide, reference compound]
Second: Cc1nc2cnccc2n1Cc1ccc(S(=O)(=O)N(C)[C@H](COC(=O)NCc2ccccn2)CC(C)C)cc1 [Example 108, O-Pyridin-2-ylmethylaminocarbonyl-N-methyl-N-4-(1H-2-methylimidazo[4,5-c]pyridinylmethyl)phenylsulphonyl-L-leucinol]
The ED50 of the first is 23-fold higher: 150 µg/kg for the first, 6.6 µg/kg for the second.

`CCCCCCCCCCCCCCCCCC(=O)OC[C@H](CC(C)C)N(C)S(=O)(=O)c1ccc(Cn2c(C)nc3cnccc32)cc1` [Example 44, O-Octadecanoyl-N-methyl-N-4-(1H-2-methylimidazo[4,5-c]pyridinylmethyl)phenylsulphonyl-L-leucinol] and `COc1ccc(SCC(=O)OC[C@H](CC(C)C)N(C)S(=O)(=O)c2ccc(Cn3c(C)nc4cnccc43)cc2)cc1OC` [Example 78, O-2-(3,4-Dimethoxyphenylmercapto)ethanoyl-N-methyl-N-4-(1H-2-methylimidazo[4,5-c]pyridinylmethyl)phenylsulphonyl-L-leucinol] are within 1.5-fold of each other in ED50: 4.6 µg/kg for the first, 5.8 µg/kg for the second.

Going from `CC(=O)Oc1ccccc1C(=O)OC[C@H](CC(C)C)N(C)S(=O)(=O)c1ccc(Cn2c(C)nc3cnccc32)cc1` [Example 49, O-2-Acetoxybenzoyl-N-methyl-N-4-(1H-2-methylimidazo[4,5-c]pyridinylmethyl)phenylsulphonyl-L-leucinol] to `CCc1noc([C@H](CC(C)C)N(C)S(=O)(=O)c2ccc(Cn3c(C)nc4cnccc43)cc2)n1` [Example 156, N-Methyl-N-4-(1H-2-methylimidazo[4,5-c]pyridinylmethyl)phenylsulphonyl-1-(3-ethyl-1,2,4-oxadiazol-5-yl)-3-methylbutylamine], the ED50 falls from 2.2 µg/kg to 0.6 µg/kg (3.7-fold).

target: T1, platelet activating factor (PAF) receptor (human platelet plasma membrane) (Homo sapiens, UniProt P25105); assay: inhibition of [^3 H]-PAF receptor binding to human platelet plasma membrane; conditions: [^3 H]-PAF 0.5 nM, 0° C., 1 hour, pH 7.0
T1 construct: Platelet concentrates were obtained from a hospital blood bank; from tissue; host or cells: human platelets (hospital blood bank concentrates), lysed plasma membrane preparation
Description: The inhibition of [^3 H]-PAF binding to human platelet plasma membrane by compounds of general formula I was determined by isotopic labelling and filtration techniques. Platelet concentrates were obtained from a hospital blood bank. These platelet concentrates (500-2500 ml.) were centrifuged at 800 rpm for 10 minutes in a SORVALL RC3B centrifuge to remove the red blood cells present. (The word SORVALL is a trade mark.) The supernatant was subsequently centrifuged at 3,000 rpm in a SORVALL RC3B centrifuge to pellet the platelets present. The platelet rich pellets were resuspended in a minimum volume of buffer (150 mM NaCl, 10 mM Tris, 2 mM EDTA, pH 7.5) and layered onto Ficoll-Paque gradients, 9 ml platelet concentrate to 2 ml Ficoll, and centrifuged at 1,900 rpm for 15 minutes in a SORVALL RT6000 centrifuge. This step removes the residual red blood cells and other nonspecific material such as lymphocytes from the preparation. The platelets which form a band between the plasma and the Ficoll were removed, resuspended in the above buffer and centrifuged at 3,000 rpm for 10 minutes in a SORVALL RT6000 centrifuge. The pelleted platelets were resuspended in buffer (10 mM Tris, 5 mM MgCl2, 2 mM EDTA, pH 7.0), snap freezed in liquid N2 and allowed to thaw slowly at room temperature in order to lyse the platelets. The latter step was repeated at least 3 times to ensure proper lysis. The lysed platelets were centrifuged at 3,000 rpm for 10 minutes in a SORVALL RT6000 centrifuge and resuspended in buffer. The latter step was repeated twice in order to remove any cytoplasmic proteins which may hydrolyse the platelet activating factor (PAF) receptor. The prepared platelet membranes may be stored at -70° C. After thawing the prepared membranes were centrifuged in a SORVALL RT6000 at 3,000 rpm for 10 minutes and resuspended in assay buffer.
The assay was conducted by preparing a series of Tris-buffered solutions of the selected antagonist of predetermined concentrations. Each of these solutions contained [^3 H]-PAF (0.5 nM; 1-O-[^3 H]octadecyl-2-acetyl-sn-glycero-3-phosphoryl choline with a specific activity of 132 Ci/mmol), unlabelled PAF (1000 nM), a known amount of the test antagonist, and a sufficient amount of Tris-buffer solution (10 mM Tris, 5 mM MgCl2, pH 7.0, 0.25% BSA) to make the final volume 1 ml. Incubation was initiated by the addition of 100 μg of the isolated membrane fraction to each of the above solutions at 0° C. Two control samples, one (C1 ) which contained all the ingredients described above except the antagonist and the other (C2) contains C1 plus a 1000-fold excess of unlabelled PAF, were also prepared and incubated simultaneously with the test samples.
After 1 hour incubation, each solution was filtered rapidly under vacuo through a WHATMAN GF/C glass fibre filter in order to separate unbound PAF from bound PAF. (The word WHATMAN is a trade mark.) The residue in each case was rapidly washed 4 times with 5 ml cold (4° C.) Tris-buffer solution. Each washed residue was dried under vacuum on a sampling manifold and placed into vials containing 20 ml of OPTIPHASE MP scintillation fluid and the radioactivity counted in a liquid scintillation counter. (The word OPTIPHASE is a trade mark.) Defining the counts for total binding with antagonist from a test sample as "TBA"; the counts for total binding from the control sample C1 as "TB"; and the counts for nonspecific binding from the control sample C2 as "NSB", the percent inhibition of each test antagonist can be determined by the following equation:
Inhibition=[(TB-TBA)/SB]×100
where the specific binding SB=TB-NSB
Table 1 lists results from this assay for inhibition of [^3 H]-PAF receptor binding for illustrative examples of the compounds of this invention. […]

T1 sequence (P25105 whole entry): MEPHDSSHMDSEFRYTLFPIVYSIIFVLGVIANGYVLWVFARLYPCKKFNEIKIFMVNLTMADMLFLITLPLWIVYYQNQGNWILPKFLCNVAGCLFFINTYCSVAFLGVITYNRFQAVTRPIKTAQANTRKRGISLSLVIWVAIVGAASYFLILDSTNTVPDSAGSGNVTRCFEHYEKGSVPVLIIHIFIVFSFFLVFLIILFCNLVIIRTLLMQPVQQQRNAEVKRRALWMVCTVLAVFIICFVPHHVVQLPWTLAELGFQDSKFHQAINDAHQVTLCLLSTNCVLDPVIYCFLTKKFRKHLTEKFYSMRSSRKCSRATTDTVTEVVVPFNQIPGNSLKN

Compared with `Cc1nc2cnccc2n1Cc1ccc(S(=O)(=O)N(C)[C@H](CO)CC(C)C)cc1` [Example 1, N-Methyl-N-4-(1H-2-methylimidazo[4,5-c]pyridinylmethyl)phenylsulphonyl-L-leucinol], `CCC(=O)OC[C@H](CC(C)C)N(C)S(=O)(=O)c1ccc(Cn2c(C)nc3cnccc32)cc1` [Example 45, O-Propanoyl-N-methyl-N-4-(1H-2-methylimidazo[4,5-c]pyridinylmethyl)phenylsulphonyl-L-leucinol] is 14-fold lower in IC50: 7 nM for the first, 0.5 nM for the second.

Compared with `CCCCCCCCCCCCCCCCCC(=O)OC[C@H](CC(C)C)N(C)S(=O)(=O)c1ccc(Cn2c(C)nc3cnccc32)cc1` [Example 44, O-Octadecanoyl-N-methyl-N-4-(1H-2-methylimidazo[4,5-c]pyridinylmethyl)phenylsulphonyl-L-leucinol], `CCCCCCCCCCCCCCCCCCNC(=O)OC[C@H](CC(C)C)N(C)S(=O)(=O)c1ccc(Cn2c(C)nc3cnccc32)cc1` [Example 109, O-Octadecylaminocarbonyl-N-methyl-N-4-(1H-2-methylimidazo[4,5-c]pyridinylmethyl)phenylsulphonyl-L-leucinol] is 3-fold higher in IC50: 1 nM for the first, 3 nM for the second. The first is the more potent here.

`CCOC(=O)C(=O)OC[C@H](CC(C)C)N(C)S(=O)(=O)c1ccc(Cn2c(C)nc3cnccc32)cc1` [Example 47, O-Ethyloxaloyl-N-methyl-N-4-(1H-2-methylimidazo[4,5-c]pyridinylmethyl)phenylsulphonyl-L-leucinol] and `CC(=O)Oc1ccccc1C(=O)OC[C@H](CC(C)C)N(C)S(=O)(=O)c1ccc(Cn2c(C)nc3cnccc32)cc1` [Example 49, O-2-Acetoxybenzoyl-N-methyl-N-4-(1H-2-methylimidazo[4,5-c]pyridinylmethyl)phenylsulphonyl-L-leucinol] are the same in IC50: 2 nM for the first, 2 nM for the second.

Going from `CC1=C(/C=C/C(C)=C/C=C/C(C)=C/C(=O)OC[C@H](CC(C)C)N(C)S(=O)(=O)c2ccc(Cn3c(C)nc4cnccc43)cc2)C(C)(C)CCC1` [Example 79, O-Retinoyl-N-methyl-N-4-(1H-2-methylimidazo[4,5-c]pyridinylmethyl)phenylsulphonyl-L-leucinol] to `Cc1noc([C@H](CC(C)C)N(C)S(=O)(=O)c2ccc(Cn3c(C)nc4cnccc43)cc2)n1` [Example 155, N-Methyl-N-4-(1H-2-methylimidazo[4,5-c]pyridinylmethyl)phenylsulphonyl-1-(3-methyl-1,2,4-oxadiazol-5-yl)-3-methylbutylamine], the IC50 falls from 4 nM to 2 nM (2-fold).

From patent publication US5516783A, “4-(1H-2-methylimidazo[4,5-c]pyridinylmethyl)phenylsulphonamide derivatives as antagonist of PAF” (British Biotech Pharmaceuticals Limited, priority 1992, dated 1996)
